“And” between values parts separate entries of the source, which are not always exact repeats. Identical values can stand only once. Inconclusive results and toxic doses are left out. No stated cut-off is given here; in the data, active means T/C of 150% or more; inactive means T/C below 125%.
Test system: L1210 leukemia ip in BDF1 mice, survival T/C
Assay: NCI In Vivo Anticancer Drug Screen. Data for tumor model L1210 Leukemia (intraperitoneal) in B6D2F1 (BDF1) mice
Details: endpoint: mean survival time, higher = longer survival
Procedure, shortened: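 Each compound was tested against a transplantable tumor grown in mice. The endpoint was survival, with treated animals benchmarked against vehicle controls as a simple ratio.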

[1] = dose: 100.0 mg/kg/injection, schedule: Q01DX009 (ip), vehicle: Klucel (hydroxypropylcellulose) (HPC)
[2] = dose: 100.0 mg/kg/injection, schedule: Q04DX003 (ip), vehicle: Klucel (hydroxypropylcellulose) (HPC)
[3] = dose: 100.0 mg/kg/injection, schedule: Q04DX003 (ip), vehicle: saline with Tween-80
[4] = dose: 200.0 mg/kg/injection, schedule: Q01DX009 (ip), vehicle: Klucel (hydroxypropylcellulose) (HPC)
[5] = dose: 200.0 mg/kg/injection, schedule: Q04DX003 (ip), vehicle: Klucel (hydroxypropylcellulose) (HPC)
[6] = dose: 200.0 mg/kg/injection, schedule: Q04DX003 (ip), vehicle: saline with Tween-80
[7] = dose: 400.0 mg/kg/injection, schedule: Q01DX009 (ip), vehicle: Klucel (hydroxypropylcellulose) (HPC)
[8] = dose: 400.0 mg/kg/injection, schedule: Q04DX003 (ip), vehicle: Klucel (hydroxypropylcellulose) (HPC)
[9] = dose: 400.0 mg/kg/injection, schedule: Q04DX003 (ip), vehicle: saline with Tween-80
[10] = dose: 100.0 mg/kg/injection, schedule: Q01DX009 (ip), vehicle: saline
[11] = dose: 100.0 mg/kg/injection, schedule: Q04DX003 (ip), vehicle: saline
[12] = dose: 200.0 mg/kg/injection, schedule: Q01DX009 (ip), vehicle: saline
[13] = dose: 200.0 mg/kg/injection, schedule: Q04DX003 (ip), vehicle: saline
[14] = dose: 400.0 mg/kg/injection, schedule: Q01DX009 (ip), vehicle: saline
[15] = dose: 400.0 mg/kg/injection, schedule: Q04DX003 (ip), vehicle: saline
[16] = dose: 25.0 mg/kg/injection, schedule: Q04DX003 (ip), vehicle: saline with Tween-80
[17] = dose: 50.0 mg/kg/injection, schedule: Q04DX003 (ip), vehicle: saline with Tween-80

Measured: T/C

COc1cccc(NC(=S)NC2CCCCCCCCCCC2)c1
inactive: dose: 100.0 mg/kg/injection, schedule: Q04DX002 (ip), vehicle: gum acacia 94 % of control | dose: 200.0 mg/kg/injection, schedule: Q04DX002 (ip), vehicle: gum acacia 94 % of control | dose: 400.0 mg/kg/injection, schedule: Q04DX002 (ip), vehicle: gum acacia 94 % of control

O=C(NC(CO)C(=O)OCc1ccccc1)OCc1ccccc1 (configuration not stated)
inactive: [1] 104 % of control | [2] 104 % of control | [3] 98 % of control | [4] 102 % of control | [5] 101 % of control | [6] 95 % of control | [7] 102 % of control | [8] 90 % of control | [9] 90 % of control

COc1ccccc1/C=N\NC(=S)Nc1ccc(F)cc1
inactive: dose: 60.0 mg/kg/injection, schedule: Q01DX Z (oral), vehicle: methylcellulose (MC) 106 % of control | dose: 120.0 mg/kg/injection, schedule: Q01DX Z (oral), vehicle: methylcellulose (MC) 90 % of control | dose: 240.0 mg/kg/injection, schedule: Q01DX Z (ip), vehicle: methylcellulose (MC) 92 % of control | dose: 240.0 mg/kg/injection, schedule: Q01DX Z (oral), vehicle: methylcellulose (MC) 96 % of control | dose: 480.0 mg/kg/injection, schedule: Q01DX Z (ip), vehicle: methylcellulose (MC) 91 % of control | dose: 480.0 mg/kg/injection, schedule: Q01DX Z (oral), vehicle: methylcellulose (MC) 93 % of control

CC(C)(CC(=O)O)c1ccccc1
inactive: dose: 100.0 mg/kg/injection, schedule: Q01DX001 (ip), vehicle: saline 96 % of control | [10] 104 % of control | [11] 100 % of control | dose: 200.0 mg/kg/injection, schedule: Q01DX001 (ip), vehicle: saline 106 % of control | [12] 101 % of control | [13] 104 % of control | dose: 400.0 mg/kg/injection, schedule: Q01DX001 (ip), vehicle: saline 96 % of control | [14] 96 % of control | [15] 91 % of control

CN1C(=O)CC(c2ccc(N3C(=O)C=CC3=O)cc2)C1=O (configuration not stated)
inactive: dose: 25.0 mg/kg/injection, schedule: Q04DX002 (ip), vehicle: saline with Tween-80 102 % of control

CC12CCC3C(CCC4=CC(=O)CCC43C)C1CCCN2 (configuration not stated)
inactive: dose: 75.0 mg/kg/injection, schedule: Q01DX001 (sc), vehicle: steriod suspending solution 93 % of control | dose: 150.0 mg/kg/injection, schedule: Q01DX001 (sc), vehicle: steriod suspending solution 90 % of control

O=C1c2cc(Br)ccc2-c2c(Cl)cc(Br)cc21
inactive: dose: 100.0 mg/kg/injection, schedule: Q01DX001 (ip), vehicle: carboxymethylcellulose (CMC) 105 % of control | dose: 200.0 mg/kg/injection, schedule: Q01DX001 (ip), vehicle: carboxymethylcellulose (CMC) 97 % of control | dose: 400.0 mg/kg/injection, schedule: Q01DX001 (ip), vehicle: carboxymethylcellulose (CMC) 105 % of control

CCC(C)C(CCN1CCCCC1)(CNC(=O)CN(CC)CC)c1cccc2ccccc12 (configuration not stated)
inactive: [11] 103 % of control | [13] 103 % of control

COC1=CC(C)C2CC3OC(O)CC4C(C)=C(OC)C(=O)C(C2(C)C1=O)C34C (configuration not stated)
inactive: dose: 100.0 mg/kg/injection, schedule: Q01DX001 (ip), vehicle: Klucel (hydroxypropylcellulose) (HPC) 102 % of control | [1] 91 % of control | [2] 96 % of control | dose: 200.0 mg/kg/injection, schedule: Q01DX001 (ip), vehicle: Klucel (hydroxypropylcellulose) (HPC) 105 % of control | [4] 100 % of control | [5] 97 % of control | dose: 400.0 mg/kg/injection, schedule: Q01DX001 (ip), vehicle: Klucel (hydroxypropylcellulose) (HPC) 105 % of control | [7] 94 % of control | [8] 96 % of control

COC(=O)C12Oc3ccc(-c4ccc5c(c4O)C(O)=C4C(=O)CC(C)C(O)C4(C(=O)OC)O5)c(O)c3C(O)=C1C(=O)CC(C)C2O (configuration not stated)
inactive: dose: 1.56 mg/kg/injection, schedule: Q01DX009 (ip), vehicle: saline with Tween-80 104 % of control | dose: 3.13 mg/kg/injection, schedule: Q01DX009 (ip), vehicle: saline with Tween-80 100 % of control | dose: 6.25 mg/kg/injection, schedule: Q01DX009 (ip), vehicle: saline with Tween-80 105 % of control and 91 % of control | dose: 12.5 mg/kg/injection, schedule: Q04DX003 (ip), vehicle: saline with Tween-80 98 % of control | [16] 110 % of control | [17] 104 % of control

O=C(O)c1cccc(-c2ccccc2)c1
inactive: [16] 94 % of control | [17] 93 % of control | [3] 104 % of control | [11] 101 % of control | [6] 94 % of control and 100 % of control | [13] 106 % of control | [15] 108 % of control

CC1CNC(=O)N1 (configuration not stated)
inactive: [11] 102 % of control | [13] 101 % of control | dose: 222.0 mg/kg/injection, schedule: Q01DX Z (ip), vehicle: saline 97 % of control | dose: 333.0 mg/kg/injection, schedule: Q01DX Z (ip), vehicle: saline 111 % of control | [15] 96 % of control | dose: 500.0 mg/kg/injection, schedule: Q01DX Z (ip), vehicle: saline 103 % of control

CN(C)CCN(Cc1ccccc1)c1ccccc1
inactive: dose: 25.0 mg/kg/injection, schedule: Q01DX009 (ip), vehicle: Klucel (hydroxypropylcellulose) (HPC) 98 % of control | dose: 25.0 mg/kg/injection, schedule: Q04DX003 (ip), vehicle: Klucel (hydroxypropylcellulose) (HPC) 95 % of control | dose: 50.0 mg/kg/injection, schedule: Q01DX009 (ip), vehicle: Klucel (hydroxypropylcellulose) (HPC) 102 % of control | dose: 50.0 mg/kg/injection, schedule: Q04DX003 (ip), vehicle: Klucel (hydroxypropylcellulose) (HPC) 103 % of control | [1] 106 % of control | [2] 103 % of control

CCCCC(CC)COP(=S)(S)OCC(CC)CCCC.[Sn] (configuration not stated)
inactive: [2] 100 % of control | [5] 99 % of control | [8] 96 % of control

CCOC(=O)c1ccccc1COc1ccc([N+](=O)[O-])cc1Cl
inactive: [1] 93 % of control | [4] 93 % of control | [7] 88 % of control

CCOC(=O)C1(C(=O)OCC)CC(C)C1
inactive: [10] 101 % of control | [11] 101 % of control | [12] 108 % of control | [13] 93 % of control | [14] 96 % of control | [15] 104 % of control

Cc1cccc(C2=NCCN2)c1C
inactive: dose: 5.0 mg/kg/injection, schedule: Q01DX009 (ip), vehicle: saline with Tween-80 97 % of control | dose: 10.0 mg/kg/injection, schedule: Q01DX009 (ip), vehicle: saline with Tween-80 103 % of control | dose: 20.0 mg/kg/injection, schedule: Q01DX009 (ip), vehicle: saline with Tween-80 97 % of control

CC1(C)CC(=O)C2C(C1)Nc1ccccc1NC2c1cccc([N+](=O)[O-])c1 (configuration not stated)
inactive: dose: 100.0 mg/kg/injection, schedule: Q04DX002 (ip), vehicle: Klucel (hydroxypropylcellulose) (HPC) 109 % of control | dose: 200.0 mg/kg/injection, schedule: Q04DX002 (ip), vehicle: Klucel (hydroxypropylcellulose) (HPC) 103 % of control

COC(=O)C(C(=O)OC)C(Br)(OC(C)=O)OC(C)=O
inactive: [3] 98 % of control | [6] 100 % of control | [9] 106 % of control

CC(=O)Oc1c2cccc3c(=O)c4cccc5c4-c(c23)c2c1cccc2c5=O
inactive: [3] 95 % of control | [6] 95 % of control | [9] 101 % of control
